Drawing on patent US20130150330A1, “DECOQUINATE PRODRUGS” (UNIVERSITY OF KANSAS, priority 2011, published 2013), this text covers solubility for one molecule.

Each structure is given as a SMILES string.

This data set is described as follows: Solubility in water, increasing amounts added to 1 mL deionized water. Type of data set: physicochemical. As to conditions: decoquinate without the prodrug moiety, comparison. As to the method: Comparatively, decoquinate without the prodrug moiety is practically insoluble in water (<0.05 mg/ml). Improved solubility in water allows administration of the decoquinate prodrug by the intravenous and intramuscular routes. Additionally, water solubility also makes oral administration feasible by improving absorption from the GI tract.

For the molecule `CCCCCCCCCCOc1cc2c(O)c(C(=O)OCC)cnc2cc1OCC` [decoquinate, ethyl 6-(decyloxy)-7-ethoxy-4-oxo-1,4-dihydroquinoline-3-carboxylate], the solubility is less than 50 µg/mL.
